Legend:
[1] = Normal tissue damage / cutaneous photosensitivity by ear swelling after irradiation; assay type: in vivo, mice; conditions: 0.88 μmol/kg; same light dose 24 h after drug injection
Description: In a separate group of mice, the normal tissue damage was assessed by irradiating one ear with 40 Jcm^−2 of broad spectrum white light delivered using a fibre bundle from the xenon light source. The incident power at the ear surface was 638 mWcm^−2 and light was applied for 63 s. Animal ears were irradiated with light 24 h after administration of N-Me-NC-m-THPP. The opposing ear served as a control. The response was assessed twenty-four hours after irradiation by measuring the ear thickness at three sites on the upper third of the ear using a fixed-force micrometer with a vernier-interpolated resolution of 2 μm and an accuracy of 10 μm (Neill instruments).

syngeneic colo26 tumour = conditions: m-THPP dose of 1.61 μmol/kg; light at 652 nm; Berenbaum et al. 1993; cited from earlier work

SMILES	Ear Swelling (irradiated − control; μm) [1] [μm]	tumour necrosis (literature) (syngeneic colo26 tumour) [mm]
Oc1cccc(-c2c3nc(c(-c4cccc(O)c4)c4ccc([nH]4)c(-c4cccc(O)c4)c4nc(c(-c5cccc(O)c5)c5ccc2[nH]5)CC4)C=C3)c1 [m-THPC, tetra(3-hydroxyphenyl)dihydroporphyrin]	41	
Oc1cccc(-c2c3nc(c(-c4cccc(O)c4)c4ccc([nH]4)c(-c4cccc(O)c4)c4nc(c(-c5cccc(O)c5)c5ccc2[nH]5)C=C4)C=C3)c1 [m-THPP]		0.14

Reference: patent publication US7319147B2, “Porphyrins and related compounds” (Bioscience Technology Investment Holdings Limited, priority 2000, dated 2008)
